Measured values from US10851083B2, “Benzoimidazoles as prolyl hydroxylase inhibitors” (Janssen Pharmaceutica NV, priority 2008, dated 2020).

Key:
human PHD2181-417 = human PHD2181-417 (Homo sapiens (Human), UniProt Q9GZT9); test: PHD2 enzyme activity assay ([14C]-succinic acid production); type: biochemical; conditions: PHD2181-417 polypeptide, HIF-1α peptide 10 μM, [5-14C]-2-oxoglutaric acid; 30 min pre-incubation; tested 10 μM to 3 nM;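 also: reaction ran 10 min with compound in Tris pH 7.5 buffer with catalase, DTT and ascorbate, labelled succinate freed of leftover 2-oxoglutarate by DNP precipitation, then beta counted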
Sequence of human PHD2181-417 (Q9GZT9 181-417): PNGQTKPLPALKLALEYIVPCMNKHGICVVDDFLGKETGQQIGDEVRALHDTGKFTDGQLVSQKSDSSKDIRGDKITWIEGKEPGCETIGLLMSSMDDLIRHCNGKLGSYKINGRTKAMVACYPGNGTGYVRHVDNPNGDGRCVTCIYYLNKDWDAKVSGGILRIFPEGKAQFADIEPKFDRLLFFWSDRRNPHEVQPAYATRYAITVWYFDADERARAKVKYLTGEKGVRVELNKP

Hep-3B cells = test: Cellular assay: EPO secretion in Hep-3B cells; type: cell-based, human; set-up: EPO secretion, % of control compound: dose or concentration left out as unconfirmed; conditions: Homo sapiens, Hep3B, 24 h, EPO secretion as percentage of control compound 7-[(4-Chloro-phenyl)-(5-methyl-isoxazol-3-ylamino)-methyl]-quinolin-8-ol, read-out: Cellular % EPO Stimulation

Row | Structure (SMILES) | Enzyme pIC50 (human PHD2181-417) | EPO secretion, % of control compound (Hep-3B cells)
1 | O=C(O)c1cnn(-c2nc3cc(Oc4ccccc4)c(Cl)cc3[nH]2)c1 [Example 57, 1-(6-Chloro-5-phenoxy-1H-benzoimidazol-2-yl)-1H-pyrazole-4-carboxylic Acid] | 6.9 | 55%
2 | CCOc1cc2[nH]c(-n3cc(C(=O)O)cn3)nc2cc1F [Example 119, 1-(6-Ethoxy-5-fluoro-1H-benzoimidazol-2-yl)-1H-pyrazole-4-carboxylic Acid] | 6.5 | 69%
3 | O=C(O)c1cnn(-c2nc3cc(Oc4ccccc4)c(C(F)(F)F)cc3[nH]2)c1 [Example 56, 1-(5-Phenoxy-6-trifluoromethyl-1H-benzoimidazol-2-yl)-1H-pyrazole-4-carboxylic Acid] | 7.2 | 143%
4 | O=C(O)c1cnn(-c2nc3cc(S(=O)(=O)c4ccccc4)c(C(F)(F)F)cc3[nH]2)c1 [Example 161, 1-(5-Benzenesulfonyl-6-trifluoromethyl-1H-benzoimidazol-2-yl)-1H-pyrazole-4-carboxylic Acid] | 7.6 | 98.2%
5 | CN1CCN(CC(=O)Nc2cc3nc(-n4cc(C(=O)O)cn4)[nH]c3cc2Cl)CC1 [Example 144, 1-{6-Chloro-5-[2-(4-methyl-piperazin-1-yl)-acetylamino]-1H-benzoimidazol-2-yl}-1H-pyrazole-4-carboxylic Acid] | 6.4 | 16%
6 | O=C(O)c1cnn(-c2nc3cc(SCCN4CCOCC4)c(Cl)cc3[nH]2)c1 [Example 166, 1-[6-Chloro-5-(2-morpholin-4-yl-ethylsulfanyl)-1H-benzoimidazol-2-yl]-1H-pyrazole-4-carboxylic Acid] | 7 | 15.1%
7 | O=C(O)c1cnn(-c2nc3ccc4scnc4c3[nH]2)c1 [Example 125, 1-(8H-Imidazo[4′,5′:3,4]benzo[2,1-d]thiazol-7-yl)-1H-pyrazole-4-carboxylic Acid] | 6 | 46.8%
8 | O=C(O)c1cnn(-c2nc3cc(N4CCCCC4)c(Cl)cc3[nH]2)c1 [Example 44, 1-(6-Chloro-5-piperidin-1-yl-1H-benzoimidazol-2-yl)-1H-pyrazole-4-carboxylic Acid] | 6.7 | 139%
9 | O=C(O)c1cnn(-c2nc3cc(C(=O)NN4CCOCC4)ccc3[nH]2)c1 [Example 122, 1-[5-(Morpholin-4-ylcarbamoyl)-1H-benzoimidazol-2-yl]-1H-pyrazole-4-carboxylic Acid] | 6.6 | 5.4%
10 | COc1ccc(S(=O)(=O)c2cc3nc(-n4cc(C(=O)O)cn4)[nH]c3cc2Cl)cc1 [Example 84, 1-[6-Chloro-5-(4-methoxy-benzenesulfonyl)-1H-benzoimidazol-2-yl]-1H-pyrazole-4-carboxylic Acid] | 7.3 | 42.7%
11 | COc1ccc(CS(=O)(=O)c2cc3nc(-n4cc(C(=O)O)cn4)[nH]c3cc2Cl)cc1 [Example 91, 1-[6-Chloro-5-(4-methoxy-phenylmethanesulfonyl)-1H-benzoimidazol-2-yl]-1H-pyrazole-4-carboxylic Acid] | 7.7 | 22%
12 | CS(=O)(=O)c1cc2[nH]c(-n3cc(C(=O)O)cn3)nc2cc1OC(F)(F)F [Example 100, 1-(6-Methanesulfonyl-5-trifluoromethoxy-1H-benzoimidazol-2-yl)-1H-pyrazole-4-carboxylic Acid] | 7.5 | 50.2%
13 | CCNc1cc2nc(-n3cc(C(=O)O)cn3)[nH]c2cc1Cl [Example 130, 1-(6-Chloro-5-ethylamino-1H-benzoimidazol-2-yl)-1H-pyrazole-4-carboxylic Acid] | 6.2 | 48%
14 | O=C(O)c1cnn(-c2nc3c(F)c(F)ccc3[nH]2)c1 [Example 111, 1-(4,5-Difluoro-1H-benzoimidazol-2-yl)-1H-pyrazole-4-carboxylic Acid] | 6.6 | 32.6%
15 | O=C(O)c1cnn(-c2nc3cc(C(=O)NCc4ccccc4)ccc3[nH]2)c1 [Example 121, 1-(5-Benzylcarbamoyl-1H-benzoimidazol-2-yl)-1H-pyrazole-4-carboxylic Acid] | 7.1 | 18.5%

Further lines, with some results ahead:

Row | Enzyme pIC50 (human PHD2181-417) | Structure (SMILES) | EPO secretion, % of control compound (Hep-3B cells)
16 | 6.9 | O=C(O)c1cnn(-c2nc3cc(Nc4ccccc4)c(Cl)cc3[nH]2)c1 [Example 133, 1-(6-Chloro-5-phenylamino-1H-benzoimidazol-2-yl)-1H-pyrazole-4-carboxylic Acid] | 77%
17 | 6.68 | O=C(O)c1cnn(-c2nc3cc(S(=O)(=O)c4ccc(Cl)c(Cl)c4)c(Cl)cc3[nH]2)c1 [Example 87, 1-[6-Chloro-5-(3,4-dichloro-benzenesulfonyl)-1H-benzoimidazol-2-yl]-1H-pyrazole-4-carboxylic Acid] | 32.4%
18 | 7.3 | O=C(O)c1cnn(-c2nc3cc(S(=O)(=O)c4ccc(OC(F)(F)F)cc4)c(Cl)cc3[nH]2)c1 [Example 86, 1-[6-Chloro-5-(4-trifluoromethoxy-benzenesulfonyl)-1H-benzoimidazol-2-yl]-1H-pyrazole-4-carboxylic Acid] | 48.9%
19 | 6.3 | O=C(O)c1cnn(-c2nc3cc(Br)cc(F)c3[nH]2)c1 [Example 48, 1-(5-Bromo-7-fluoro-1H-benzoimidazol-2-yl)-1H-pyrazole-4-carboxylic Acid] | 44%
20 | 6.8 | CC(C)Sc1cc2[nH]c(-n3cc(C(=O)O)cn3)nc2cc1Cl [Example 77, 1-(5-Chloro-6-isopropylsulfanyl-1H-benzoimidazol-2-yl)-1H-pyrazole-4-carboxylic Acid] | 153%
21 | 6.4 | O=C(O)c1cnn(-c2nc3nc4cc(Cl)c(Cl)cc4nc3[nH]2)c1 [Example 183, 1-(6,7-Dichloro-1H-imidazo[4,5-b]quinoxalin-2-yl)-1H-pyrazole-4-carboxylic Acid] | 3.3%
22 | 6.9 | Cc1cccc(Sc2cc3nc(-n4cc(C(=O)O)cn4)[nH]c3cc2Cl)c1 [Example 60, 1-(6-Chloro-5-m-tolylsulfanyl-1H-benzoimidazol-2-yl)-1H-pyrazole-4-carboxylic Acid] | 42.3%
23 | 7.5 | O=C(O)c1cnn(-c2nc3cc(S(=O)(=O)Cc4ccccc4Cl)c(Cl)cc3[nH]2)c1 [Example 93, 1-[6-Chloro-5-(2-chloro-phenylmethanesulfonyl)-1H-benzoimidazol-2-yl]-1H-pyrazole-4-carboxylic Acid] | 78.5%
24 | 6.4 | O=C(O)c1cnn(-c2nc3cc(Cl)cc(C(F)(F)F)c3[nH]2)c1 [Example 28, 1-(5-Chloro-7-trifluoromethyl-1H-benzoimidazol-2-yl)-1H-pyrazole-4-carboxylic Acid] | 16.6%
25 | 7.5 | O=C(O)c1cnn(-c2nc3cc(Oc4ccc(Cl)cc4)c(C(F)(F)F)cc3[nH]2)c1 [Example 55, 1-[5-(4-Chloro-phenoxy)-6-trifluoromethyl-1H-benzoimidazol-2-yl]-1H-pyrazole-4-carboxylic Acid] | 44.2%
26 | 7.3 | CCSc1cc2nc(-n3cc(C(=O)O)cn3)[nH]c2cc1C(F)(F)F [Example 149, 1-(5-Ethylsulfanyl-6-trifluoromethyl-1H-benzoimidazol-2-yl)-1H-pyrazole-4-carboxylic Acid] | 57.8%
27 | 7.6 | O=C(O)c1cnn(-c2nc3cc(S(=O)(=O)Cc4ccc(Cl)c(Cl)c4)c(Cl)cc3[nH]2)c1 [Example 176, 1-[6-Chloro-5-(3,4-dichloro-phenylmethanesulfonyl)-1H-benzoimidazol-2-yl]-1H-pyrazole-4-carboxylic Acid] | 44.2%
28 | 7.4 | O=C(O)c1cnn(-c2nc3cc(C(F)(F)F)c(C(F)(F)F)cc3[nH]2)c1 [Example 126, 1-(5,6-Bis-trifluoromethyl-1H-benzoimidazol-2-yl)-1H-pyrazole-4-carboxylic Acid] | 82.7%
29 | 7.4 | O=C(O)c1cnn(-c2nc3cc(Oc4ccc(OC(F)(F)F)cc4)c(Cl)cc3[nH]2)c1 [Example 147, 1-[6-Chloro-5-(4-trifluoromethoxy-phenoxy)-1H-benzoimidazol-2-yl]-1H-pyrazole-4-carboxylic Acid] | 45.9%
30 | 6.9 | CCSc1cc2[nH]c(-n3cc(C(=O)O)cn3)nc2cc1Cl [Example 76, 1-(5-Chloro-6-ethylsulfanyl-1H-benzoimidazol-2-yl)-1H-pyrazole-4-carboxylic Acid] | 212%
31 | 7.4 | O=C(O)c1cnn(-c2nc3cc(S(=O)(=O)CCc4ccccc4)c(Cl)cc3[nH]2)c1 [Example 94, 1-[6-Chloro-5-(2-phenyl-ethanesulfonyl)-1H-benzoimidazol-2-yl]-1H-pyrazole-4-carboxylic Acid] | 65.1%
32 | 7.3 | O=C(O)c1cnn(-c2nc3cc(S(=O)(=O)c4ccc(Cl)cc4)c(Cl)cc3[nH]2)c1 [Example 85, 1-[6-Chloro-5-(4-chloro-benzenesulfonyl)-1H-benzoimidazol-2-yl]-1H-pyrazole-4-carboxylic Acid] | 51.6%
33 | 6.6 | O=C(O)c1cnn(-c2nc3cc(SCc4cccc(Cl)c4)c(Cl)cc3[nH]2)c1 [Example 164, 1-[6-Chloro-5-(3-chloro-benzylsulfanyl)-1H-benzoimidazol-2-yl]-1H-pyrazole-4-carboxylic Acid] | 27.4%
